Test: xn = mol fraction of the nth substance listed
Details: 101 kPa, Liquid; for speed of sound: Sing-around technique in a fixed-path interferometer; for mass density: Vibrating tube method

CCCCCCn1cc[n+](C)c1.F[P-](F)(F)(F)(F)F [1-hexyl-3-methylimidazolium hexafluorophosphate] + COCCO
Details	mass density [kg/m3]	speed of sound [m/s]
288.15 K, x1 = 0.0503	1020.76	1399.2
288.15 K, x1 = 0.1092	1067.45	1411
288.15 K, x1 = 0.2006	1121.27	1419.8
288.15 K, x1 = 0.3032	1165.23	1422.9
288.15 K, x1 = 0.4013	1197.38	1424.7
288.15 K, x1 = 0.5017	1223.62	1427.5
288.15 K, x1 = 0.6054	1245.52	1433.9
288.15 K, x1 = 0.7024	1262.69	1434.3
288.15 K, x1 = 0.8019	1277.93	1436.7
288.15 K, x1 = 0.9094	1292.27	1442.3
293.15 K, x1 = 0.0503	1016.22	1382.5
293.15 K, x1 = 0.1092	1062.97	1394.8
293.15 K, x1 = 0.2006	1116.89	1404.6
293.15 K, x1 = 0.3032	1160.9	1408.6
293.15 K, x1 = 0.4013	1193.08	1411.3
293.15 K, x1 = 0.5017	1219.44	1414.5
293.15 K, x1 = 0.6054	1241.45	1421.2
293.15 K, x1 = 0.7024	1258.71	1421.4
293.15 K, x1 = 0.8019	1273.92	1424
293.15 K, x1 = 0.9094	1288.2	1428.6
298.15 K, x1 = 0.0503	1011.72	1365.8
298.15 K, x1 = 0.1092	1058.47	1378.9
298.15 K, x1 = 0.2006	1112.46	1389.6
298.15 K, x1 = 0.3032	1156.56	1394.5
298.15 K, x1 = 0.4013	1188.79	1398
298.15 K, x1 = 0.5017	1215.23	1401.7
298.15 K, x1 = 0.6054	1237.4	1407.8
298.15 K, x1 = 0.7024	1254.67	1408.9
298.15 K, x1 = 0.8019	1269.91	1411.5
298.15 K, x1 = 0.9094	1284.2	1415.8
303.15 K, x1 = 0.0503	1007.16	1349.2
303.15 K, x1 = 0.1092	1053.96	1362.9
303.15 K, x1 = 0.2006	1108.02	1374.7
303.15 K, x1 = 0.3032	1152.21	1380.7
303.15 K, x1 = 0.4013	1184.47	1385.2
303.15 K, x1 = 0.5017	1210.98	1389
303.15 K, x1 = 0.6054	1233.3	1395.1
303.15 K, x1 = 0.7024	1250.63	1396.7
303.15 K, x1 = 0.8019	1265.91	1399.4
303.15 K, x1 = 0.9094	1280.2	1403.3
308.15 K, x1 = 0.0503	1002.49	1332.7
308.15 K, x1 = 0.1092	1049.43	1347.1
308.15 K, x1 = 0.2006	1103.58	1359.9
308.15 K, x1 = 0.3032	1147.84	1367.3
308.15 K, x1 = 0.4013	1180.37	1372.3
308.15 K, x1 = 0.5017	1206.95	1376.4
308.15 K, x1 = 0.6054	1229.34	1382.4
308.15 K, x1 = 0.7024	1246.77	1384.5
308.15 K, x1 = 0.8019	1262.04	1387.4
308.15 K, x1 = 0.9094	1276.2	1391.3
313.15 K, x1 = 0.0503	997.703	1316.2
313.15 K, x1 = 0.1092	1044.81	1331.4
313.15 K, x1 = 0.2006	1099.15	1345.2
313.15 K, x1 = 0.3032	1143.59	1353.7
313.15 K, x1 = 0.4013	1176	1359.4
313.15 K, x1 = 0.5017	1202.67	1364
313.15 K, x1 = 0.6054	1225.28	1370
313.15 K, x1 = 0.7024	1242.9	1372.4
313.15 K, x1 = 0.8019	1258.23	1375.7
313.15 K, x1 = 0.9094	1272.23	1379.5
318.15 K, x1 = 0.0503	993.086	1299.8
318.15 K, x1 = 0.1092	1040.18	1316
318.15 K, x1 = 0.2006	1094.74	1330.8
318.15 K, x1 = 0.3032	1139.13	1340.3
318.15 K, x1 = 0.4013	1171.68	1346.7
318.15 K, x1 = 0.5017	1198.47	1351.6
318.15 K, x1 = 0.6054	1221.29	1357.5
318.15 K, x1 = 0.7024	1239.06	1360.5
318.15 K, x1 = 0.8019	1254.4	1364.1
318.15 K, x1 = 0.9094	1268.47	1368.1
